Legend:
human orexin-2 receptor [1] = molecular target: T1, human orexin-2 receptor (Homo sapiens (Human), UniProt O43614); experiment: radioligand binding assay, orexin-2 receptor (membranes from CHO cells); conditions: CHO cell membranes, read-out: hOX2 hKi
Description: (§1) The utility of the compounds in accordance with the present invention as orexin receptor OX1R and/or OX2R antagonists may be readily determined without undue experimentation by methodology well known in the art, including the “FLIPR Ca^2+ Flux Assay” (Okumura et al., Biochem. Biophys. Res. Comm. 280:976-981, 2001). In a typical experiment the OX1 and OX2 receptor antagonistic activity of the compounds of the present invention was determined in accordance with the following experimental method. For intracellular calcium measurements, Chinese hamster ovary (CHO) cells expressing the rat orexin-1 receptor or the human orexin-2 receptor, are grown in Iscove's modified DMEM containing 2 mM L-glutamine, […], 1% hypoxanthine-thymidine supplement, 100 U/ml penicillin, 100 ug/ml streptomycin and 10% heat-inactivated fetal calf serum (FCS). The cells are seeded at 20,000 cells/well into Becton-Dickinson black 384-well clear bottom sterile plates coated with poly-D-lysine. All reagents were from GIBCO-Invitrogen Corp. The seeded plates are incubated overnight at 37° C. and 5% CO2. Ala-6,12 human orexin-A as the agonist is prepared as a 1 mM stock solution in 1% bovine serum albumin (BSA) and diluted in assay buffer (HBSS containing 20 mM HEPES, 0.1% BSA and 2.5 mM probenecid, pH7.4) for use in the assay at a final concentration of 70 pM. Test compounds are prepared as 10 mM stock solution in DMSO, then diluted in 384-well plates, first in DMSO, then assay buffer. On the day of the assay, cells are washed 3 times with 100 ul assay buffer and then incubated for 60 min (37° C., 5% CO2) in 60 ul assay buffer containing 1 uM Fluo-4AM ester, 0.02% pluronic acid, and 1% BSA. The dye loading solution is then aspirated and cells are washed 3 times with 100 ul assay buffer. 30 ul of that same buffer is left in each well. Within the Fluorescent Imaging Plate Reader (FLIPR, Molecular Devices), test compounds are added to the plate in a volume of 25 ul, incubated for 5 min and finally 25 ul of agonist is added. Fluorescence is measured for each well at 1 second intervals for 5 minutes and the height of each fluorescence peak is compared to the height of the fluorescence peak induced by 70 pM Ala-6,12 orexin-A with buffer in place of antagonist. […] Alternatively, compound potency can be assessed by a radioligand binding assay (described in Bergman et. al. Bioorg. Med. Chem. Lett. 2008, 18, 1425-1430) in which the inhibition constant (Ki) is determined in membranes prepared from CHO cells expressing either the OX1 or OX2 receptor. The intrinsic orexin receptor antagonist activity of a compound which may be used in the present invention may be determined by these assays.

OX1 receptor (hOX1) = OX1 receptor (hOX1) (Homo sapiens, UniProt O43613); experiment: radioligand binding assay, orexin-1 receptor (membranes from CHO cells); conditions: CHO cell membranes, read-out: hOX1 hKi
Description: In a typical experiment the OX1 and OX2 receptor antagonistic activity of the compounds of the present invention was determined in accordance with the following experimental method. For intracellular calcium measurements, Chinese hamster ovary (CHO) cells expressing the rat orexin-1 receptor or the human orexin-2 receptor, are grown in Iscove's modified DMEM containing 2 mM L-glutamine, […], 1% hypoxanthine-thymidine supplement, 100 U/ml penicillin, 100 ug/ml streptomycin and 10% heat-inactivated fetal calf serum (FCS). The cells are seeded at 20,000 cells/well into Becton-Dickinson black 384-well clear bottom sterile plates coated with poly-D-lysine. All reagents were from GIBCO-Invitrogen Corp. The seeded plates are incubated overnight at 37° C. and 5% CO2. Ala-6,12 human orexin-A as the agonist is prepared as a 1 mM stock solution in 1% bovine serum albumin (BSA) and diluted in assay buffer (HBSS containing 20 mM HEPES, 0.1% BSA and 2.5 mM probenecid, pH7.4) for use in the assay at a final concentration of 70 pM. Test compounds are prepared as 10 mM stock solution in DMSO, then diluted in 384-well plates, first in DMSO, then assay buffer. On the day of the assay, cells are washed 3 times with 100 ul assay buffer and then incubated for 60 min (37° C., 5% CO2) in 60 ul assay buffer containing 1 uM Fluo-4AM ester, 0.02% pluronic acid, and 1% BSA. The dye loading solution is then aspirated and cells are washed 3 times with 100 ul assay buffer. 30 ul of that same buffer is left in each well. Within the Fluorescent Imaging Plate Reader (FLIPR, Molecular Devices), test compounds are added to the plate in a volume of 25 ul, incubated for 5 min and finally 25 ul of agonist is added. Fluorescence is measured for each well at 1 second intervals for 5 minutes and the height of each fluorescence peak is compared to the height of the fluorescence peak induced by 70 pM Ala-6,12 orexin-A with buffer in place of antagonist. […] Alternatively, compound potency can be assessed by a radioligand binding assay (described in Bergman et. al. Bioorg. Med. Chem. Lett. 2008, 18, 1425-1430) in which the inhibition constant (Ki) is determined in membranes prepared from CHO cells expressing either the OX1 or OX2 receptor. The intrinsic orexin receptor antagonist activity of a compound which may be used in the present invention may be determined by these assays.

human orexin-2 receptor [2] = molecular target: T1, human orexin-2 receptor; experiment: FLIPR Ca2+ Flux Assay, CHO cells expressing human orexin-2 receptor; format: cell-based; conditions: 70 pM Ala-6,12 orexin-A agonist, read-out: hOX2R FLIPR IC50
Description: as §1

rat orexin-1 receptor = rat orexin-1 receptor (Rattus norvegicus (Rat), UniProt P56718); experiment: FLIPR Ca2+ Flux Assay, CHO cells expressing rat orexin-1 receptor; format: cell-based; conditions: 70 pM Ala-6,12 orexin-A agonist, read-out: hOX1R FLIPR IC50;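 also: concentration giving 50% inhibition of the agonist-induced calcium response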
Description: as §1

rat orexin-1 receptor, sequence (P56718 whole entry): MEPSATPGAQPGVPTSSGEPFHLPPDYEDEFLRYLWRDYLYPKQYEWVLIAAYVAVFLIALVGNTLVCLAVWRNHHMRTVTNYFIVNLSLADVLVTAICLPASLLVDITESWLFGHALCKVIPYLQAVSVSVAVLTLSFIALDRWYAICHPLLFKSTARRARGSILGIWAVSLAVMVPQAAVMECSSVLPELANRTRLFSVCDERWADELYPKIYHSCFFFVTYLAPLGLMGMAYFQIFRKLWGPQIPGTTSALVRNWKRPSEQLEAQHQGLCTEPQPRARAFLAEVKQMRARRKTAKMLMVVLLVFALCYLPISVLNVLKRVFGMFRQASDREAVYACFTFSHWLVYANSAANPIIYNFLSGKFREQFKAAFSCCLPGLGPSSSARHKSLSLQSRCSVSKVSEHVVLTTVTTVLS
T1 sequence (O43614 whole entry): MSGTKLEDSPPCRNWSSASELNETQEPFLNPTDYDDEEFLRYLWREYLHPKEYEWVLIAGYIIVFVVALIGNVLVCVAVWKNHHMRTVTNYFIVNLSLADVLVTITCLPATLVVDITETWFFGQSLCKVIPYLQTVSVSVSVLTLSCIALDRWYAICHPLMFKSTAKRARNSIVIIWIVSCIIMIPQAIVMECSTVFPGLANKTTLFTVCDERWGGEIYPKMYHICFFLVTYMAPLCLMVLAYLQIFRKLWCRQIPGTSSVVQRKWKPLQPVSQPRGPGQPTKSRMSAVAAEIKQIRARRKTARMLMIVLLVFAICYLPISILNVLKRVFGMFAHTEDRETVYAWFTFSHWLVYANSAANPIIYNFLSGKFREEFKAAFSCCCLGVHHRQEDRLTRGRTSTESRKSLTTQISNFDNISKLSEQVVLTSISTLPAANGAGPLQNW

| SMILES | Ki (human orexin-2 receptor [1]) [µM] | Ki (OX1 receptor (hOX1)) [µM] | IC50 (human orexin-2 receptor [2]) [µM] | IC50 (rat orexin-1 receptor) [µM] |
| --- | --- | --- | --- | --- |
| Cc1cccc(-n2nccn2)c1C(=O)N1C[C@H](Oc2cc(C#N)ccn2)CC[C@H]1C [Example 4, 2-{[(3R,6R)-6-methyl-1-{[2-methyl-6-(2H-1,2,3-triazol-2-yl)phenyl]carbonyl}piperidin-3-yl]oxy}pyridine-4-carbonitrile] | 0.0023 | 0.932 | 0.029 | > 10 |
| Cc1cccc(C(=O)N2C[C@H](Oc3cc(C#N)ccn3)CC[C@H]2C)c1-n1nccn1 [Example 5, 2-{[(3R,6R)-6-methyl-1-{[3-methyl-2-(2H-1,2,3-triazol-2-yl)phenyl]carbonyl}piperidin-3-yl]oxy}pyridine-4-carbonitrile] | 0.003 | 0.669 | 0.017 | 2.33 |
| C[C@@H]1CC[C@@H](Oc2cc(C#N)ccn2)CN1C(=O)c1cccc(F)c1-n1nccn1 [Example 6, 2-{[(3R,6R)-1-{[3-fluoro-2-(2H-1,2,3-triazol-2-yl)phenyl]carbonyl}-6-methylpiperidin-3-yl]oxy}pyridine-4-carbonitrile] | 0.0055 | 1.9 | 0.018 | > 10 |
| C[C@@H]1CC[C@@H](Oc2cc(C#N)ccn2)CN1C(=O)c1ccc(Cl)cc1-n1nccn1 [Example 7, 2-{[(3R,6R)-1-{[4-chloro-2-(2H-1,2,3-triazol-2-yl)phenyl]carbonyl}-6-methylpiperidin-3-yl]oxy}pyridine-4-carbonitrile] | 0.0011 | 0.997 | 0.017 | 3.84 |
| C[C@@H]1CC[C@@H](Oc2cc(C#N)ccn2)CN1C(=O)c1nscc1-n1nccn1 [Example 11, 2-{[(3R,6R)-6-methyl-1-{[4-(2H-1,2,3-triazol-2-yl)isothiazol-3-yl]carbonyl}piperidin-3-yl]oxy}pyridine-4-carbonitrile] | 0.094 | 13 | – | – |
| C[C@@H]1CC[C@@H](Oc2cc(C#N)ccn2)CN1C(=O)c1cn(C)nc1-n1nccn1 [Example 12, 2-{[(3R,6R)-6-methyl-1-{[1-methyl-3-(2H-1,2,3-triazol-2-yl)-1H-pyrazol-4-yl]carbonyl}piperidin-3-yl]oxy}pyridine-4-carbonitrile] | 0.151 | 5.64 | – | – |
| CCOc1ccc(C(=O)N2C[C@H](Oc3cc(C#N)ccn3)CC[C@H]2C)c(-n2nccn2)c1 [Example 21, 2-{[(3R,6R)-1-{[4-ethoxy-2-(2H-1,2,3-triazol-2-yl)phenyl]carbonyl}-6-methylpiperidin-3-yl]oxy}pyridine-4-carbonitrile] | 3.92 | 23.2 | – | – |
| C[C@@H]1CC[C@@H](Oc2cc(C#N)ccn2)CN1C(=O)c1ccccc1-n1ncnn1 [Example 30, 2-{[(3R,6R)-6-methyl-1-{[2-(2H-tetrazol-2-yl)phenyl]carbonyl}piperidin-3-yl]oxy}pyridine-4-carbonitrile] | – | – | 0.11 | < 10 |
| C[C@@H]1CC[C@@H](Oc2cc(C#N)ccn2)CN1C(=O)c1ccsc1-c1ncccn1 [Example 32, 2-({(3R,6R)-6-methyl-1-[(2-pyrimidin-2-ylthiophen-3-yl)carbonyl]piperidin-3-yl}oxy)pyridine-4-carbonitrile] | 0.0021 | – | 0.044 | 6.74 |

Continued, in another order:

| Ki (human orexin-2 receptor [1]) [µM] | Ki (OX1 receptor (hOX1)) [µM] | SMILES | IC50 (human orexin-2 receptor [2]) [µM] | IC50 (rat orexin-1 receptor) [µM] |
| --- | --- | --- | --- | --- |
| 0.137 | 34.5 | Cc1nsc(-n2nccn2)c1C(=O)N1C[C@H](Oc2cc(C#N)ccn2)CC[C@H]1C [Example 13, 2-{[(3R,6R)-6-methyl-1-{[3-methyl-5-(2H-1,2,3-triazol-2-yl)isothiazol-4-yl]carbonyl}piperidin-3-yl]oxy}pyridin-4-carbonitrile] | – | – |
| 0.057 | 5.64 | C[C@@H]1CC[C@@H](Oc2cc(C#N)ccn2)CN1C(=O)c1cc(Cl)ccc1-n1nccn1 [Example 16, 2-{[(3R,6R)-1-{[5-chloro-2-(2H-1,2,3-triazol-2-yl)phenyl]carbonyl}-6-methylpiperidin-3-yl]oxy}pyridine-4-carbonitrile] | – | – |
| 0.134 | 1.29 | C[C@@H]1CC[C@@H](Oc2cc(C#N)ccn2)CN1C(=O)c1cc(C(N)=O)ccc1-n1nccn1 [Example 18, 3-({(2R,5R)-5-[(4-cyanopyridin-2-yl)oxy]-2-methylpiperidin-1-yl}carbonyl)-4-(2H-1,2,3-triazol-2-yl)benzamide] | – | – |
| 0.035 | 7.84 | C[C@@H]1CC[C@@H](Oc2cc(C#N)ccn2)CN1C(=O)c1ccc(OCF)cc1-n1nccn1 [Example 23, 2-{[(3R,6R)-1-{[4-(fluoromethoxy)-2-(2H-1,2,3-triazol-2-yl)phenyl]carbonyl}-6-methylpiperidin-3-yl]oxy}pyridine-4-carbonitrile] | – | – |
| 0.079 | 23.9 | C[C@@H]1CC[C@@H](Oc2cc(C#N)ccn2)CN1C(=O)c1ccc(OC(F)F)cc1-n1nccn1 [Example 24, 2-{[(3R,6R)-1-{[4-(difluoromethoxy)-2-(2H-1,2,3-triazol-2-yl)phenyl]carbonyl}-6-methylpiperidin-3-yl]oxy}pyridine-4-carbonitrile] | – | – |
| 10.9 | 9.44 | C[C@@H]1CC[C@@H](Oc2cc(C#N)ccn2)CN1C(=O)c1ccc(OCCO)cc1-n1nccn1 [Example 25, 2-{[(3R,6R)-1-{[4-(2-hydroxyethoxy)-2-(2H-1,2,3-triazol-2-yl)phenyl]carbonyl}-6-methylpiperidin-3-yl]oxy}pyridine-4-carbonitrile] | – | – |
| 0.162 | 9.44 | Cc1ccc(C(=O)N2C[C@H](Oc3cc(C#N)ccn3)CC[C@H]2C)c(-n2nccn2)n1 [Example 26, 2-{[(3R,6R)-6-methyl-1-{[6-methyl-2-(2H-1,2,3-triazol-2-yl)pyridin-3-yl]carbonyl}piperidin-3-yl]oxy}pyidine-4-carbonitrile] | – | – |
| 1.04 | 9.44 | C[C@@H]1CC[C@@H](Oc2cc(C#N)ccn2)CN1C(=O)c1ccc(C(F)(F)F)nc1-n1nccn1 [Example 27, 2-{[(3R,6R)-6-methyl-1-{[2-(2H-1,2,3-triazol-2-yl)-6-(trifluoromethyl)pyridin-3-yl]carbonyl}piperidin-3-yl]oxy}pyridine-4-carbonitrile] | – | – |
| 0.618 | 2.82 | COc1ccc(C(=O)N2C[C@H](Oc3cc(C#N)ccn3)CC[C@H]2C)c(Cl)n1 [Example 28, 2-({(3R,6R)-1-[(2-chloro-6-methoxypyridin-3-yl)carbonyl]-6-methylpiperidin-3-yl}oxy)pyridine-4-carbonitrile] | – | – |
